Columns and labels:
Type in all cases: in vivo
Sunflower [1] = test: Test C preemergence; details: Rate 250 g/ha, visual evaluation after 12 to 14 days
[2] = tested on: barnyardgrass (Echinochloa crus-galli); test: Test C flooded paddy test; details: for Barnyardgrass plant response rating: Flooded Paddy, scale 0 to 100, 0 no effect, 100 complete control; for Plant response rating, Barnyardgrass: flooded paddy test, scale 0 to 100 (0 no effect, 100 complete control)
Outline: (§1)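 Ratings come from visual comparison with control plants after 12 to 14 days in the greenhouse. Each species was at the 2-leaf stage when the flooded paddy was treated. Scores run from 0, meaning no effect, to 100, meaning complete control.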

[3] = tested on: duck salad (Heteranthera limosa); test: Test C flooded paddy test; details: for Ducksalad plant response rating: Flooded Paddy, scale 0 to 100, 0 no effect, 100 complete control; for Plant response rating, Ducksalad: flooded paddy test, scale 0 to 100 (0 no effect, 100 complete control)
Outline: as §1

[4] = tested on: smallflower flatsedge (Cyperus difformis); test: Test C flooded paddy test; details: for Flatsedge plant response rating: Flooded Paddy, scale 0 to 100, 0 no effect, 100 complete control; for Plant response rating, Flatsedge: flooded paddy test, scale 0 to 100 (0 no effect, 100 complete control)
Outline: as §1

[5] = tested on: goosegrass (Eleusine indica); test: Test C preemergence
Source text: (§2) Seeds of plant species selected from bermudagrass (Cynodon dactylon), Surinam grass (Brachiaria decumbens), cocklebur (Xanthium strumarium), corn (Zea mays), crabgrass (Digitaria sanguinalis), woolly cupgrass (Eriochloa villosa), giant foxtail (Setaria faberii), goosegrass (Eleusine indica), johnsongrass (Sorghum halepense), kochia (Kochia scoparia), lambsquarters (Chenopodium album), morningglory (Ipomoea hederacea), yellow nutsedge (Cyperus esculentus), pigweed (Amaranthus retroflexus), common ragweed (Ambrosia elatior), soybean (Glycine max) and velvetleaf (Abutilon theophrasti) were planted and treated preemergence with test chemicals formulated in a non-phytotoxic solvent mixture which included a surfactant.
(§3) At the same time, plants selected from these crop and weed species and also winter barley (Hordeum vulgare), blackgrass (Alopecurus myosuroides), canary grass (Phalaris minor), chickweed (Stellaria media), downy brome (Bromus tectorum), green foxtail (Setaria viridis), Italian ryegrass (Lolium multiflorum), wheat (Triticum aestivum), wild oat (Avena fatua) and windgrass (Apera spica-venti) were treated with postemergence applications of some of the test chemicals formulated in the same manner. Plants ranged in height from 2 to 18 cm (1- to 4-leaf stage) for postemergence treatments. Plant species in the flooded paddy test consisted of rice (Oryza saliva), smallflower flatsedge (Cyperus difformis), duck salad (Heteranthera limosa) and barnyardgrass (Echinochloa crus-galli) grown to the 2-leaf stage for testing. Treated plants and controls were maintained in a greenhouse for 12 to 14 days, after which time all species were compared to controls and visually evaluated. Plant response ratings, summarized in Table C, are based on a scale of 0 to 100 where 0 is no effect and 100 is complete control. A dash (-) response means no test result.

[6] = tested on: johnsongrass (Sorghum halepense); test: Test C preemergence
Source text: as §2, §3

Sunflower [7] = test: Test C preemergence
Source text: as §2, §3

[8] = tested on: pigweed (Amaranthus retroflexus); test: Test C preemergence
Source text: as §2, §3

[9] = tested on: velvetleaf (Abutilon theophrasti); test: Test C preemergence
Source text: as §2, §3

[10] = tested on: morningglory (Ipomoea hederacea); test: Test C preemergence
Source text: as §2, §3

[11] = tested on: lambsquarters (Chenopodium album); test: Test C preemergence
Source text: as §2, §3

[12] = tested on: woolly cupgrass (Eriochloa villosa); test: Test C preemergence
Source text: as §2, §3

[13] = tested on: yellow nutsedge (Cyperus esculentus); test: Test C preemergence
Source text: as §2, §3

corn (Zea mays) = test: Test C preemergence
Source text: as §2, §3

Nightshade = test: Test C preemergence
Source text: as §2, §3

soybean (Glycine max) = test: Test C preemergence
Source text: as §2, §3

[14] = tested on: cocklebur (Xanthium strumarium); test: Test C preemergence
Source text: as §2, §3

[15] = tested on: Surinam grass (Brachiaria decumbens); test: Test C preemergence
Source text: as §2, §3

[16] = tested on: crabgrass (Digitaria sanguinalis); test: Test C preemergence
Source text: as §2, §3

[17] = tested on: bermudagrass (Cynodon dactylon); test: Test C preemergence
Source text: as §2, §3

[18] = tested on: giant foxtail (Setaria faberii); test: Test C preemergence
Source text: as §2, §3

[19] = Preemergence, Rate 500 g/ha, scale 0 to 100
[20] = Rate 62 g/ha, scale 0 to 100, 0 no effect, 100 complete control
[21] = preemergence, Rate 250 g/ha, visual evaluation after 12 to 14 days
[22] = preemergence, Rate 125 g/ha, scale 0 to 100, 0 no effect, 100 complete control

With `CCC(C)c1ccn(C2SCN(c3cccc(OC(F)(F)F)c3)C2=O)n1` (stereo not shown) [Compound 32] the “Plant response rating (0 to 100), Sunflower” value (Sunflower [1]) was 70, the “Barnyardgrass plant response rating” value ([2]; Rate 250 g/ha) was 100 and the “Barnyardgrass plant response rating” value ([2]; Rate 500 g/ha) was 100. The “Plant response rating, Barnyardgrass” value ([2]; Rate 62 g/ha) was 20, the “Plant response rating, Barnyardgrass” value ([2]; Rate 125 g/ha) was 100 and the “Ducksalad plant response rating” value ([3]; Rate 250 g/ha) was 100. The “Ducksalad plant response rating” value ([3]; Rate 500 g/ha) was 80, the “Plant response rating, Ducksalad” value ([3]; Rate 62 g/ha) was 50 and the “Plant response rating, Ducksalad” value ([3]; Rate 125 g/ha) was 80. For the same compound, the “Flatsedge plant response rating” value ([4]; Rate 250 g/ha) was 100, the “Flatsedge plant response rating” value ([4]; Rate 500 g/ha) was 100 and the “Plant response rating, Flatsedge” value ([4]; Rate 62 g/ha) was 100. For the same compound, the “Plant response rating, Flatsedge” value ([4]; Rate 125 g/ha) was 100, the “Plant response rating, Goosegrass” value [5, 19] was 100 and the “Plant response rating, Goosegrass” value [5, 20] was 100. The “Plant response rating (0 to 100), Goosegrass” value [5, 21] was 100, the “Plant response rating, Goosegrass” value [5, 22] was 100 and the “Plant response rating, Johnsongrass” value [6, 19] was 90. The “Plant response rating, Johnsongrass” value [6, 20] was 30, the “Plant response rating (0 to 100), Johnsongrass” value [6, 21] was 90 and the “Plant response rating, Johnsongrass” value [6, 22] was 40. For the same compound, the “Plant response rating, Sunflower” value (Sunflower [7]; [20]) was 0, the “Plant response rating, Sunflower” value (Sunflower [7]; Rate 500 g/ha, scale 0 to 100) was 70 and the “Plant response rating, Pigweed” value [8, 19] was 80. For the same compound, the “Plant response rating, Pigweed” value [8, 20] was 70, the “Plant response rating (0 to 100), Pigweed” value [8, 21] was 70 and the “Plant response rating, Pigweed” value [8, 22] was 20. For the same compound, the “Plant response rating, Velvetleaf” value [9, 19] was 40, the “Plant response rating, Velvetleaf” value [9, 20] was 0 and the “Plant response rating (0 to 100), Velvetleaf” value [9, 21] was 0. For the same compound, the “Plant response rating, Velvetleaf” value [9, 22] was 0, the “Plant response rating, Morningglory” value [10, 19] was 80 and the “Plant response rating, Morningglory” value [10, 20] was 30. The “Plant response rating (0 to 100), Morningglory” value [10, 21] was 50, the “Plant response rating, Morningglory” value [10, 22] was 40 and the “Plant response rating, Lambsquarters” value [11, 19] was 100. For the same compound, the “Plant response rating, Lambsquarters” value [11, 20] was 100, the “Plant response rating (0 to 100), Lambsquarters” value [11, 21] was 100 and the “Plant response rating, Lambsquarters” value [11, 22] was 100. The “Plant response rating, Cupgrass, Woolly” value [12, 19] was 90, the “Plant response rating, Cupgrass, Woolly” value [12, 20] was 60 and the “Plant response rating (0 to 100), Cupgrass, Woolly” value [12, 21] was 90. The “Plant response rating, Cupgrass, Woolly” value [12, 22] was 70, the “Plant response rating, Nutsedge” value [13, 19] was 60 and the “Plant response rating (0 to 100), Nutsedge” value [13, 21] was 50. For the same compound, the “Plant response rating, Nutsedge” value [13, 22] was 50, the “Plant response rating, Corn” value (corn (Zea mays); [19]) was 60 and the “Plant response rating, Corn” value (corn (Zea mays); [20]) was 40. The “Plant response rating (0 to 100), Corn” value (corn (Zea mays); [21]) was 50, the “Plant response rating, Corn” value (corn (Zea mays); [22]) was 50 and the “Plant response rating, Nightshade” value (Nightshade; [20]) was 50. For the same compound, the “Plant response rating, Nightshade” value (Nightshade; Rate 125 g/ha, scale 0 to 100, 0 no effect, 100 complete control) was 50, the “Plant response rating, Nightshade” value (Nightshade; Rate 500 g/ha, scale 0 to 100) was 100 and the “Plant response rating, Soybean” value (soybean (Glycine max); [19]) was 60. The “Plant response rating, Soybean” value (soybean (Glycine max); [20]) was 50, the “Plant response rating (0 to 100), Soybean” value (soybean (Glycine max); [21]) was 60 and the “Plant response rating, Soybean” value (soybean (Glycine max); [22]) was 50. For the same compound, the “Plant response rating, Cocklebur” value [14, 19] was 0, the “Plant response rating, Cocklebur” value [14, 20] was 0 and the “Plant response rating (0 to 100), Cocklebur” value [14, 21] was 0. For the same compound, the “Plant response rating, Surinam grass” value [15, 19] was 90, the “Plant response rating, Surinam grass” value [15, 20] was 70 and the “Plant response rating (0 to 100), Surinam grass” value [15, 21] was 80. The “Plant response rating, Surinam grass” value [15, 22] was 80, the “Plant response rating, Crabgrass” value [16, 19] was 100 and the “Plant response rating, Crabgrass” value [16, 20] was 100. For the same compound, the “Plant response rating (0 to 100), Crabgrass” value [16, 21] was 100, the “Plant response rating, Crabgrass” value [16, 22] was 100 and the “Plant response rating, Bermudagrass” value [17, 19] was 100. For the same compound, the “Plant response rating, Bermudagrass” value [17, 20] was 50, the “Plant response rating (0 to 100 where 0 is no effect and 100 is complete control), Bermudagrass” value [17, 21] was 100 and the “Plant response rating, Bermudagrass” value [17, 22] was 90. For the same compound, the “Plant response rating, Foxtail, Giant” value [18, 19] was 100, the “Plant response rating, Foxtail, Giant” value [18, 20] was 70 and the “Plant response rating (0 to 100), Foxtail, Giant” value [18, 21] was 100. The “Plant response rating, Foxtail, Giant” value [18, 22] was 50.
